The values below come from patent US5510340A, “Antihypercholesterolemic compounds and related pharmaceutical compositions and methods of use” (SRI International, priority 1992, dated 1996).

One assay has as its system Cholesterol Biosynthesis. As to the kind of experiment: In Vivo Cholesterol Biosynthesis Inhibition in Rats with Oral Administration of Test Compounds (compound 13, gavage). The arrangement: species or system Male Sprague-Dawley rats. Conditions: rat plasma, 7 days; for 14C-Acetate Incorporation / Cholesterol Levels, HDL / 14C-Acetate Incorporation, Inhibition: gavage; for 14C-Acetate Incorporation: control 1200 ± 95; for Cholesterol Levels, HDL / Cholesterol Levels, Total: mean ± S.E.; for Cholesterol Levels, HDL: control 32 ± 2.1; for 14C-Acetate Incorporation, Inhibition: vs control; for Cholesterol Levels, Total: three daily doses via gavage, control 77.6 ± 2.3. As for the experimental part:
(b.) In Vivo Cholesterol Biosynthesis Inhibition in Rats with Oral Administration of Test Compounds:
Male Sprague-Dawley rats weighing 120 to 150 g were used. The animals were placed on a cholesterol-free diet immediately upon arrival and housed in a room with a reverse light cycle. One week after they had adapted to the light cycle, the experiment was begun by gavaging the animals three times daily with various amounts of test compound 13 suspended in 1.0 mL of saline. The control group received 1.0 mL of saline alone. On the seventh day of the experiment, sodium 1-^14 C! acetate (20 μCi/rat) was injected intraperitoneally 30 min after the oral administration (gavage) of test compounds and 2 h before the mid-dark point in the diurnal cycle; 4 h after the ^14 C-acetate injection, the animals were killed and blood samples were collected after decapitation. Plasma was obtained by centrifuging blood in an EDTA-treated centrifuge tube at 3000 rpm for 10 min. Cholesterol synthesis was measured by determining the level of ^14 C-labeled nonsaponifiable lipid present in 1.0 mL of plasma; 1.0 mL of plasma was first mixed with 1.0 mL of saline, followed by 5.0 mL of 10% KOH in absolute ethanol. Samples were saponified at 75° C. for 1 h. After cooling, 44,000 dpm, 0.5 nmol of 1,2-^3 H! cholesterol was added to each sample as an internal standard for calculating recovery through the extraction procedure. Samples were extracted once with 5 mL of petroleum ether, and the organic phase was backwashed with 5 mL of saline. The extracts were dried on a nitrogen evaporator, and the residue was reconstituted into 0.5 mL of CHCl3 -MeOH (2:1). The 0.5-mL reconstituted samples were transferred into counting vials containing 2 mL of ethanol, and both ^3 H and ^14 C were counted in 10 mL of scintillation fluid. The ^3 H-cholesterol internal standard recovery value from each sample was used to correct each sample to 100% recovery of ^14 C-cholesterol. The total cholesterol level and HDL in each plasma sample was also measured. The comparison between test groups and the control group was evaluated for both cholesterol levels and ^14 C-acetate incorporation.

The subject of assay [1] is Cholesterol Levels in Plasma of Rats. The assay is described as follows: Assay for Lowering Cholesterol Levels in Rats Fed Drug-Containing Food Ad Libitum. Format: in vivo, Male Sprague-Dawley rats. As to conditions: rat plasma, mean ± S.E. As to the method:
(d.) Assay for Lowering Cholesterol Levels in Rats Fed Drug-Containing Food Ad Libitum:
Male Sprague-Dawley rats weighing 150 to 200 g were used for this experiment. The animals were divided into groups of six rats each. All groups were kept on a cholesterol-free diet throughout the entire experiment. This diet was prepared by adding the test compound in small portions (usually 100 mg) to 100 g of choleserol-free diet in a 1-liter glass separatory funnel with a stopper. The diet was thoroughly mixed after each addition of the test compound. The resulting diet was kept in a refrigerator at all times. Before feeding, the diet was allowed to warm to room temperature. The animals were housed individually in metabolic cages. All test groups were allowed free access to the cholesterol-free diet containing the proper doses of the test compound. A pair-fed group was assigned to each test group and allowed free access to the cholesterol-free diet only in the amount consumed by its corresponding counterpart on the previous day. The control group was allowed free access to the cholesterol-free diet with no restriction. The food consumption and body weights of all groups were recorded daily. Blood samples were taken from all groups on day 0 and every third or fourth day throughout the entire experiment. Plasma was obtained by drawing blood into EDTA-treated centrifuge tubes and centrifuging at 3000 rpm for 10 min. The total cholesterol level and HDL in each plasma sample were determined using a Gemini autoanalyzer.

The mark [2] stands for this setting: Day 0, cholesterol-free diet containing 0.2% inhibitor, control 29 ± 0.9.
[3] abbreviates: Day 0, cholesterol-free diet containing 0.2% inhibitor, control 70 ± 1.
Setting [4] is: Day 4, cholesterol-free diet containing 0.2% inhibitor, control 28 ± 2.
Setting [5] is: Day 4, cholesterol-free diet containing 0.2% inhibitor, control 77 ± 2.
Where [6] appears, read: Day 7, cholesterol-free diet containing 0.2% inhibitor, control 26 ± 2.
[7] abbreviates: Day 7, diet containing 0.2% inhibitor, control 76 ± 4, ^b significantly lower than Day 0 (P < 0.001), pair-fed (P < 0.005) and control (P < 0.001), ^c significantly lower than pair-fed (P < 0.02).
The mark [8] stands for this setting: Day 10, cholesterol-free diet containing 0.2% inhibitor, control 32 ± 1.5.
Setting [9] is: Day 10, cholesterol-free diet containing 0.2% inhibitor, control 81 ± 3.

`CC(C)CCC[C@@H](C)[C@H]1Cc2nnc3c4c2[C@]1(C)CC[C@@H]4[C@@]1(C)CC[C@H](O)C[C@@H]1C3` [Compound 13, pyridazino 3',4',5',6':7,8,14,15!5α-cholestan-3β-ol]: the “14C-Acetate Incorporation” value turned out to be 696 ± 107 cpm/ml with Cholesterol Biosynthesis (0.16 mg/rat/day); 510 ± 122 cpm/ml in the assay with Cholesterol Biosynthesis (0.33 mg/rat/day); 385 ± 47 cpm/ml in the assay with Cholesterol Biosynthesis (1.0 mg/rat/day); 383 ± 38 cpm/ml in the assay with Cholesterol Biosynthesis (3.0 mg/rat/day); 340 ± 50 cpm/ml with Cholesterol Biosynthesis (7.5 mg/rat/day). In addition, the “Cholesterol Levels, HDL” value was found to be 44.0 ± 10.6 Mg/100 ml in the assay on Cholesterol Biosynthesis (0.16 mg/rat/day); 27.6 ± 3.5 Mg/100 ml with Cholesterol Biosynthesis (0.33 mg/rat/day); 28.6 ± 1.9 Mg/100 ml with Cholesterol Biosynthesis (1.0 mg/rat/day); 28.8 ± 4.3 Mg/100 ml in the assay with Cholesterol Biosynthesis (3.0 mg/rat/day); 14.3 ± 0.33 Mg/100 ml in the assay with Cholesterol Biosynthesis (7.5 mg/rat/day). Moreover, the “14C-Acetate Incorporation, Inhibition” value was 42% in the assay on Cholesterol Biosynthesis (0.16 mg/rat/day); 58% with Cholesterol Biosynthesis (0.33 mg/rat/day); 68% with Cholesterol Biosynthesis (1.0 mg/rat/day); 69% with Cholesterol Biosynthesis (3.0 mg/rat/day); 72% in the assay with Cholesterol Biosynthesis (7.5 mg/rat/day). The “Cholesterol Levels, Total” value in the assay with Cholesterol Biosynthesis (0.16 mg/rat/day) is 66.8 ± 3.4 Mg/100 ml; in the assay on Cholesterol Biosynthesis (0.33 mg/rat/day) it was 62.6 ± 2.4 Mg/100 ml; with Cholesterol Biosynthesis (1.0 mg/rat/day) it was 61.4 ± 3.0 Mg/100 ml; with Cholesterol Biosynthesis (3.0 mg/rat/day), 60.8 ± 0.9 Mg/100 ml; in the assay on Cholesterol Biosynthesis (7.5 mg/rat/day) it was 44.0 ± 1.0 Mg/100 ml; in assay [1] (setting [3]), 74 ± 1 mg/100 mL. The “Cholesterol Levels, Total” value in assay [1] (setting [5]) turned out to be 62 ± 2 mg/100 mL; in assay [1] (setting [7]), 46 ± 3 mg/100 mL; in assay [1] (setting [9]), 47 ± 5 mg/100 mL. Moreover, the “Cholesterol levels, LDL” value in assay [1] (setting [2]) is reported as 34 ± 1.8 mg/100 mL; in assay [1] (setting [4]), 28 ± 2 mg/100 mL; in assay [1] (setting [6]), 17 ± 3 mg/100 mL; in assay [1] (setting [8]), 29 ± 2 mg/100 mL.
With `CC(C)CCC[C@@H](C)[C@H]1CC(=O)C2=C3CC[C@H]4C[C@@H](O)CC[C@]4(C)[C@H]3CC[C@@]21C` [Compound 27, 3β-Hydroxy-5α-cholest-8(14)-ene-15-one, reference compound], the “Cholesterol levels, LDL” value in assay [1] (setting [2]) amounted to 34 ± 2 mg/100 mL; in assay [1] (setting [4]), 31 ± 2 mg/100 mL; in assay [1] (setting [6]), 23 ± 2 mg/100 mL; in assay [1] (setting [8]) it was 41 ± 1.5 mg/100 mL. Moreover, the “Cholesterol Levels, Total” value is given as 74 ± 3 mg/100 mL in assay [1] (setting [3]), 69 ± 2 mg/100 mL in assay [1] (setting [5]), 48 ± 4 mg/100 mL in assay [1] (setting [7]) and 66 ± 2 mg/100 mL in assay [1] (setting [9]).
